Laboratory results as given in BindingDB's records for patent US9796702 (Hoffmann-La Roche, 2017).
pEC50: −log10 of the molar value.

Tests used:
[1] = molecular target: T1, Cytochrome P450 11B2, mitochondrial (Homo sapiens, UniProt P19099); assay: Inhibition Assay
T1 sequence (P19099 whole entry): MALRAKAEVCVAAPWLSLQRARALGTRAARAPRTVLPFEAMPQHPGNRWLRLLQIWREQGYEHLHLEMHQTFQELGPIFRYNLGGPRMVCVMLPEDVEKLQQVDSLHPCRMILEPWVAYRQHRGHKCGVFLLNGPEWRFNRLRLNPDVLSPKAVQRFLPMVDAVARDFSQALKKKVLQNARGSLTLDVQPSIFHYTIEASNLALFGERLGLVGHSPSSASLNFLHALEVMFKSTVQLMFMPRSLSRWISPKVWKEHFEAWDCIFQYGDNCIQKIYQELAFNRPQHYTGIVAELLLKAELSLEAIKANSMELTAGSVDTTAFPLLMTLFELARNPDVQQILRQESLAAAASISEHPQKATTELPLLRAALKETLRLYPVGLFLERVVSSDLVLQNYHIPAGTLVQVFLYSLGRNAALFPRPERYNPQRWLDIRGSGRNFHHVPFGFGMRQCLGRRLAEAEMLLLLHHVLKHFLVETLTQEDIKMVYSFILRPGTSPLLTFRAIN
From the text: (§1) The expression plasmids contains the ORF for either human/cyno CYP11B1 or CYP11B2 under the control of a suitable promoter (CMV-promoter) and a suitable resistance marker (neomycin). Using standard techniques the expression plasmid is transfected into G-402 cells and these cells are then selected for expressing the given resistance markers. Individual cell-clones are then selected and assessed for displaying the desired enzymatic activity using 11-Deoxycorticosterone (Cyp11B2) or 11-Deoxycortisol (Cyp11B1) as a substrate.G-402 cells expressing CYP11 constructs were established as described above and maintained in McCoy's 5a Medium Modified, ATCC Catalog No. 30-2007 containing 10% FCS and 400 μg/ml G418 (Geneticin) at 37° C. under an atmosphere of 5% CO2/95% air. Cellular enzyme assays were performed in DMEM/F12 medium containing 2.5% charcoal treated FCS and appropriate concentration of substrate (0.3-10 uM 11-Deoxycorticosterone, 11-Deoxycortisol or Corticosterone). For assaying enzymatic activity, cells were plated onto 96 well plates and incubated for 16 h. An aliquot of the supernatant is then transferred and analyzed for the concentration of the expected product (Aldosterone for CYP11B2; Cortisol for CYP11B1). The concentrations of these steroids can be determined using HTRF assays from CisBio analyzing either Aldosterone or Cortisol.

[2] = molecular target: T2, Cytochrome P450 11B1, mitochondrial (Homo sapiens, UniProt P15538); assay: Inhibition Assay
T2 sequence (P15538 whole entry): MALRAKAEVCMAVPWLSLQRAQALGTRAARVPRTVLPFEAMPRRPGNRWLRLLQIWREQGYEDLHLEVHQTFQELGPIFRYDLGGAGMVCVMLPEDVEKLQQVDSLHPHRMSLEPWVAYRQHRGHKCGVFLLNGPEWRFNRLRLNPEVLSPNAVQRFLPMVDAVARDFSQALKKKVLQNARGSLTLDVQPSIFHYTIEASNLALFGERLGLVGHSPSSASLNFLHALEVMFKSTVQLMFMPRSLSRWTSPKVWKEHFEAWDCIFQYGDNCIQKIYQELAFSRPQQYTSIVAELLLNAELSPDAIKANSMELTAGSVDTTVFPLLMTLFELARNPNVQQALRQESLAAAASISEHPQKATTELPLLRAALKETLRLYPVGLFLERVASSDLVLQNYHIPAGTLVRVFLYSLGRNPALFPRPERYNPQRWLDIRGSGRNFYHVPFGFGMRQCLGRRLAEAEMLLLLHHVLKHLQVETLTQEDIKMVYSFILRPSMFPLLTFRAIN
From the text: as §1

SMILES	pEC50 [1]	pEC50 [2]
CCS(=O)(=O)N1CCC(Cc2c[nH]nc2-c2ccc3c(c2F)CCC(=O)N3C)CC1 [US9796702, 22]	11.70	
CC(=O)N1CCC(C(C)c2c[nH]nc2-c2ccc3c(c2F)CCC(=O)N3C)CC1 (stereo not given) [US9796702, 36]	11.52	
CC(=O)N1CCC([C@H](C)c2c[nH]nc2-c2ccc3c(c2F)CCC(=O)N3C)CC1 (single isomer, unassigned) [US9796702, 37]		8.34
CC(=O)N1CCC(C(C)c2c[nH]nc2-c2cc3c(cc2F)N(C)C(=O)CC3)CC1 (racemic) [US9796702, 35]	11.30	
CN1C(=O)CCc2cc(-c3n[nH]cc3CC3CCN(C(=O)c4cnn(C)c4)CC3)ccc21 [US9796702, 17]	11.15	
